# From patent US20210052600A1, “THERAPEUTIC AGENTS FOR STRESS URINARY INCONTINENCE AND INCOTINENCE OF FECES” (Takeda Pharmaceutical Company Limited, priority 2017, published 2021)
# Like-named read-outs stand apart in the source and are kept apart here.
# Legend:
# urethral resistance = experiment: Rat urethral resistance (LPP) measured by high speed infusion of saline into the bladder; assay type: in vivo; conditions: for LPP Post / LPP Increase / LPP Pre: Table 8, mean ± SEM; for LPP Post: 30 minutes after administration; for LPP Increase: Post minus Pre; for LPP Pre: before administration
# From the text: The rats were anesthetized with isoflurane. Their spinal cord was transected at the T8-T9 (the eighth thoracic cord—the ninth thoracic cord) level. After opening of the bladder dome, two polyethylene tubes (PE-100) were inserted into the bladder. The incised portion of the bladder was closed with sutures, and the other incisions were also closed. The rats were placed in Bollman cages. The catheter for intravesical pressure measurement was connected to a pressure transducer, while the catheter for saline filling was connected to a syringe filled with Evans Blue-dyed saline. Change in intravesical pressure was recorded using the pressure transducer via an electric signal amplifier and an analog-to-digital converter. After recovery of the animals from anesthesia, the intravesical pressure measurement was started, and saline was infused at a speed of 0.1 mL/sec into the bladder using an infusion pump. The infusion was stopped when the leakage of the saline from the urethral orifice was observed. Immediately thereafter, the bladder was emptied by releasing the pressure. In this operation, the peak of recorded intravesical pressure during the saline infusion was used as LPP in this Example. This measurement was repeated, and the average LPP from the last three measurements was used as the LPP value of the trial. The mean from 2 such trials was used as a Pre value. 0.5% MC was used as the vehicle. […] The difference in LPP from the Pre value (increased amount of LPP) was calculated. Regarding change in LPP before and after drug administration, the differences between the mean values of the drug-treated and vehicle-treated groups were analyzed by the one-tailed Williams' test.
# [1] = Body weight of obese rats (DIO-F344) under continuous subcutaneous administration and effective plasma concentration; assay type: in vivo, rat; conditions: for Change in body weight (% change): mean ± SEM
# Procedure: Forty male DIO-F344 rats bred with high fat diet (42 kcal % fat) were used. On the day before surgery, the rats were grouped on the basis of their body weight. Compound A′ and Compound B′ were each dissolved in saline. Osmotic pumps filled with the Compound A′ or Compound B′ solution were subcutaneously implanted in the rats under isoflurane anesthesia. The body weight just after surgery was used as a Pre value, and the body weight was measured every day until 14 days after surgery. Regarding the averages in the body weight on Day 14, the difference in the mean averages of the drug-treated group and the vehicle-treated group was analyzed by the one-tailed Williams' test.
# The average Day 14 plasma concentration from the values of each rat measured in the morning and afternoon was used as a plasma concentration for the animal. The rate of change in body weight was calculated from the values measured just after and 14 days after osmotic pump implantation. The rate (average rate) of change of the vehicle group was subtracted from that of each drug-administered rat to plot the plasma concentration and the change in body weight. The plasma concentration at which the drug lowered the body weight by 3.8% was calculated by linear regression analysis.
# anus-closing functions = experiment: Rat anus-closing functions (Anal LPP) measured by high speed infusion of saline into the rectum; assay type: in vivo; conditions: 1 mg/kg i.v.; 5 minutes after administration; mean ± SEM
# From the text: (§1) Thirty six female SD rats were used. After overnight fasting, rats were intraperitoneally administered with urethane for anesthesia, and isoflurane inhalation was further added during surgery. The abdomen was incised to expose the rectum, and a small incision of the rectum was made. A polyethylene catheter (SP61, Natsume) was inserted into the rectum through the rectum incision, and the tip of the catheter was positioned around 5 mm from the anal orifice. The other end of the catheter was connected with a pressure transducer and an infusion pump via three-way stopcocks, and the change in pressure in the rectum was measured using the pressure transducer, an electric signal amplifier, and an analog-to-digital converter. For administrating drugs, a polyethylene catheter (SP45, Natsume) was inserted into the femoral vein after exposing the vein by small incision.
# After recovery period from surgery, while saline was infused at a speed of 0.1 mL/sec into the rectum using an infusion pump, change in the measured pressure—was observed. The infusion was stopped when the leakage of the saline from the anal orifice was observed. In the procedure, sudden decrease in the pressure was observed during the infusion with the leakage of saline from the anal orifice. The peak value of the pressure recorded in the rectum during the course of the procedures was defined as “an Anal LPP” in this Example. […] The Anal LPP was again measured in the same way 5 minutes after drug administration. The difference in Anal LPP from the Pre value (increased amount of Anal LPP) was calculated. Regarding change in Anal LPP before and after drug administration, the differences between the mean values of the drug-treated and vehicle-treated groups were analyzed by the one-tailed Williams' test or Student's t-test.
# [2] = cited from earlier work
# [3] = cited from earlier work; remark: listed apart in the source
# [4] = test system: urethral resistance increasing effect of Compound A′; experiment: Influence of antagonists (SB 242084, methiothepin) on urethral resistance increasing effect of Compound A′ in rats; assay type: in vivo, rat; conditions: mean ± SEM; for LPP Increase: Post minus Pre; for LPP Pre: before administration
# Procedure: Ninety female rats of SD strain were used. […] Isoflurane inhalation was added during the surgery, if necessary. In the experiment with intrathecal administration, the dura mater was exposed by laminectomy and then partially opened by incision, through which a catheter (PE-10) filled with saline was then implanted at the level of the L6-S1 site, followed by the closing of the incision. After opening of the abdomen, a catheter (PE-90) was inserted into the bladder. In order to secure reduced urethral resistance, unilateral nerve to iliococcygeus and pubococcygeus muscles was transected. For intraduodenal administration, another catheter (PE-50) was inserted into the duodenum in advance. The abdominal muscle and skin were each closed with sutures. Two (right and left) sites of abdominal skin near the diaphragm were cut to expose abdominal muscle. The bladder was emptied through the catheter, followed by the injection of 0.2 to 0.3 mL of Evans blue solution. Change in intravesical pressure was recorded using the bladder catheter via a pressure transducer, an electric signal amplifier, and an analog-to-digital converter. While change in intravesical pressure was recorded, the presence or absence of fluid leakage from the urethral orifice was observed under the electrical stimulation of the exposed abdominal muscle using an electrical stimulator and an isolator. […] The peak of the intravesical pressure during the stimulation of the abdominal muscle was measured, and the lowest pressure at which the fluid leakage was observed among the trials was defined as LPP for the electrical abdominal muscle stimulation method. In order to examine whether the urethral resistance increasing effect of Compound A′ is based on its agonistic potency on 5-HT2C receptors, SB 242084, methiothepin, or a vehicle was intravenously administered, and Compound A′ or a vehicle was intraduodenally administered 5 minutes later. SB 242084 was dissolved in a mixed solution of N,N-dimethylacetamide and polyethylene glycol 400 (1:1) and administered at 0.03 mg/0.5 mL/kg, 0.1 mg/0.5 mL/kg and 0.3 mg/0.5 mL/kg. Methiothepin was dissolved in saline and administered at 0.03 mg/0.5 mL/kg. 0.1 mg/0.5 mL/kg and 0.3 mg/0.5 mL/kg. Compound A′ was suspended in 0.5% MC and administered at 3 mg/mL/kg. LPP was measured again 30 minutes after Compound A′ administration. In order to examine where Compound A′ works in the body to increase urethral resistance, the blocking of the effect of Compound A′ was confirmed by blocking the functions of Compound A′ by giving methiothepin at a particular site in the body. Particularly, in the experiment with intrathecal administration, methiothepin or a vehicle was intrathecally administered, and Compound A′ or a vehicle was intraduodenally administered 5 minutes later. Methiothepin was dissolved in saline and 20 μL of the obtained solution was administered. Compound A′ was suspended in 0.5% MC and administered at 3 mg/mL/kg. LPP was measured again 30 minutes after Compound A′ administration.
# Regarding change in LPP before and after drug administration, the differences between the mean values of the Compound A′-treated and vehicle-treated groups were analyzed by the Student's t test or the Welch's test. In order to analyze the influence of the antagonists on the effect of Compound A′, the differences between the mean values of the SB 242084- or methiothepin- and Compound A′-administered group and the vehicle- and Compound A′-administered group were analyzed by the one-tailed Williams' test.
# [5] = test system: anus-closing function increasing effect of Compound A′; experiment: Influence of SB 242084 on Compound A′-induced rat anus-closing function increasing effect (Anal LPP); assay type: in vivo; conditions: SB242084 0.3 mg/kg i.v. then Compound A′ 1 mg/kg i.v.; 5 minutes after Compound A′; n=9
# Procedure: as §1, with “Eighteen” for “Thirty six”, “was” for “was further”
# After recovery period from surgery, while saline was infused at a speed of 0.1 mL/sec into the rectum using an infusion pump, change in the measured pressure—was observed. […] The peak value of the pressure recorded in the rectum during the course of the procedures was defined as “an Anal LPP” in this Example. […] The Anal LPP was again measured in the same way 5 minutes after the administration with Compound A′. The difference in Anal LPP from the Pre value (increased amount of Anal LPP) was calculated. […]
# [6] = SB 242084 0.03 mg/kg i.v. + Compound A′ 3 mg/kg i.d.
# [7] = SB 242084 0.1 mg/kg i.v. + Compound A′ 3 mg/kg i.d.
# [8] = SB 242084 0.3 mg/kg i.v. + Compound A′ 0 mg/kg i.d.
# [9] = SB 242084 0.3 mg/kg i.v. + Compound A′ 3 mg/kg i.d.
compound,measurement,setting,value
"C[C@H]1CNCCc2ccc(Cl)cc21 [Compound B′, (R)-8-chloro-1-methyl-2,3,4,5-tetrahydro-1H-3-benzazepine]",LPP Post,urethral resistance; 1 mg/kg p.o.,77.0 ± 3.6 cm H2O
same,LPP Increase,urethral resistance; 1 mg/kg p.o.,9.0 ± 1.9 cm H2O
same,LPP Pre,urethral resistance; 1 mg/kg p.o.,67.9 ± 2.5 cm H2O
same,LPP Post,urethral resistance; 2.5 mg/kg p.o.,88.1 ± 3.5 cm H2O
same,LPP Increase,urethral resistance; 2.5 mg/kg p.o.,19.6 ± 1.7 cm H2O
same,LPP Pre,urethral resistance; 2.5 mg/kg p.o.,68.5 ± 3.8 cm H2O
same,LPP Post,urethral resistance; 5 mg/kg p.o.,85.4 ±4.1 cm H2O
same,LPP Increase,urethral resistance; 5 mg/kg p.o.,25.1 ± 2.7 cm H2O
same,LPP Pre,urethral resistance; 5 mg/kg p.o.,60.2 ± 5.1 cm H2O
same,"LPP10, the dose that increases LPP by 10 cm H2O","urethral resistance; oral administration, high speed saline infusion method",1.2 mg/kg
same,Change in body weight (% change),"[1]; 0.45 mg/animal/day s.c. osmotic pump, day 3",−0.9 ± 0.2 % change
same,Change in body weight (% change),"[1]; 0.45 mg/animal/day s.c. osmotic pump, day 7",−1.4 ± 0.5 % change
same,Change in body weight (% change),"[1]; 0.45 mg/animal/day s.c. osmotic pump, day 10",−3.3 ± 0.4 % change
same,Change in body weight (% change),"[1]; 0.45 mg/animal/day s.c. osmotic pump, day 14",−3.7 ± 0.6 % change
same,Change in body weight (% change),"[1]; 1.35 mg/animal/day s.c. osmotic pump, day 3",−1.4 ± 0.3 % change
same,Change in body weight (% change),"[1]; 1.35 mg/animal/day s.c. osmotic pump, day 7",−2.5 ± 0.5 % change
same,Change in body weight (% change),"[1]; 1.35 mg/animal/day s.c. osmotic pump, day 10",−4.6 ± 0.3 % change
same,Change in body weight (% change),"[1]; 1.35 mg/animal/day s.c. osmotic pump, day 14",−5.4 ± 0.2 % change
same,Change in body weight (% change),"[1]; 4.5 mg/animal/day s.c. osmotic pump, day 3",−3.1 ± 0.6 % change
same,Change in body weight (% change),"[1]; 4.5 mg/animal/day s.c. osmotic pump, day 7",−4.8 ± 0.9 % change
same,Change in body weight (% change),"[1]; 4.5 mg/animal/day s.c. osmotic pump, day 10",−7.1 ± 0.7 % change
same,Change in body weight (% change),"[1]; 4.5 mg/animal/day s.c. osmotic pump, day 14",−8.6 ± 1.0 % change
same,plasma concentration at which the drug lowered the body weight by 3.8%,"[1]; DIO-F344 rats, day 14, vehicle-subtracted, linear regression analysis",140 ng/mL
same,Anal LPP Increase,anus-closing functions,13.8 ± 5.7 cmH2O
same,half-life in blood,[2]; after a single dose of 10 mg,11.1 h
same,maximum blood concentration,[2]; after a single dose of 10 mg,46.0 ng/mL
same,maximum blood concentration,[2]; immediate release formulation 10 mg once daily (Blossom trial),40 ng/mL
same,maximum blood concentration (Cmax),[2]; immediate release formulation 10 mg twice daily (Blossom trial),56 ng/mL
same,patients with adverse events,[3]; 10 mg bid group,57.9%
same,subjects with headache,[3]; 10 mg bid group,32.5%
same,subjects with nausea,[3]; 10 mg bid group,8.8%
same,difference of body weight loss from placebo,[3]; 10 mg once daily (QD) (Blossom trial),2.6%
same,"weight loss, difference from placebo group","[3]; obese patients, 10 mg twice daily (Blossom trial)",3.8%
Cc1cc2c(cc1Cl)N(C(=O)Nc1ccc(Oc3cccnc3C)nc1)CC2 [SB 242084],LPP Post,"[4]; SB 242084 0.03 mg/kg i.v. + Compound A′ 3 mg/kg i.d., 30 minutes after Compound A′",73.9 ± 8.7 cmH2O
same,LPP Increase,[4]; [6],29.9 ± 8.4 cmH2O
same,LPP Pre,[4]; [6],44.0 ± 7.4 cmH2O
same,LPP Post,"[4]; SB 242084 0.1 mg/kg i.v. + Compound A′ 3 mg/kg i.d., 30 minutes after Compound A′",57.6 ± 12.2 cmH2O
same,LPP Increase,[4]; [7],12.6 ± 6.3 cmH2O
same,LPP Pre,[4]; [7],45.0 ± 6.7 cmH2O
same,LPP Post,"[4]; SB 242084 0.3 mg/kg i.v. + Compound A′ 0 mg/kg i.d., 30 minutes after i.d. administration",49.3 ± 8.7 cmH2O
same,LPP Increase,[4]; [8],3.4 ± 4.6 cmH2O
same,LPP Pre,[4]; [8],45.9 ± 5.4 cmH2O
same,LPP Post,"[4]; SB 242084 0.3 mg/kg i.v. + Compound A′ 3 mg/kg i.d., 30 minutes after Compound A′",48.0 ± 6.9 cmH2O
same,LPP Increase,[4]; [9],3.8 ± 4.4 cmH2O
same,LPP Pre,[4]; [9],44.3 ± 7.0 cmH2O
same,Anal LPP Increase,[5],-2.6±4.1 cmH2O
